From patent US20180036295A1, “METHODS FOR TREATING PROTEINOPATHIES” (Genzyme Corporation, priority 2015, published 2018)

How the values were obtained:
Assay type in all cases: in vivo, mouse
[1] = tested on: protein aggregates (ubiquitin, α-synuclein and/or protein tau); experiment: Protein aggregation in brains of post-symptomatic Gba1^D409V/D409V mice (Example 33); details: administration initiated after symptoms of cognitive impairment, approximately 6 months of age
Description: Wild-type (WT) and Gba1^D409V/D409V mice are bred and treated substantially as described in Example 27, except that drug administration is initiated when animals are symptomatic for cognitive impairment, e.g. at approximately 6 months of age.
The accumulation of proteins (ubiquitin, α-synuclein and protein tau) is determined by hippocampal quantification and protein immunoreactivity substantially as described in Example 27.

human A53T-α-synuclein = experiment: Subcellular localization of α-synuclein in cortical tissue homogenates of A53T mice (serial fractionation, ELISA); details: cortex, 8 months of age
[2] = tested on: mice overexpressing A53T α-synuclein; experiment: Novel object recognition (NOR) test in A53T mice; details: A53T mice dosed from 6 weeks of age, tested at 4.5 months; FIG. 3
protein tau aggregates = experiment: Hippocampal quantification of protein tau aggregates in A53T mice; details: 8 months of age, FIG. 14
Description: For histological analysis, mice were perfused with cold PBS. Brains were removed and post-fixed in 10% (v/v) neutral buffered formalin for 48 hours. Tissues were then placed in 30% sucrose, embedded and sectioned at 20 μm in a cryostat. Some tissues were pretreated with proteinase K (1:4 dilution; DAKO, Carpinteria, Calif.) for 7 minutes at room temperature to expose α-synuclein and other aggregated proteins. […] For α-synuclein aggregate quantification, a cyanine 3-tyramide signal amplification kit was used (PerkinElmer, Waltham, Mass.). […]
For morphometric analysis, sections were imaged with a SPOT camera (Diagnostic Instruments, Sterling Heights, Mich.) paired with a Nikon Eclipse E800 fluorescence microscope equipped with a 20λ objective lens. […] For ubiquitin and tau quantification, the same threshold was used for all images such that the aggregates were positively counted and the threshold area was recorded for each image in pixels. For α-synuclein quantification, each image was analyzed individually using a range of threshold values to quantify the area of the aggregates accurately and eliminate variable background signals. […] The percent threshold area was calculated and expressed as mean±SEM. […]

[3] = tested on: symptomatic Gba1^D409V/D409V mice; experiment: NOR test in post-symptomatic Gba1^D409V/D409V mice; details: treatment from approximately 6 months of age, tested at 12 months, n=13, p<0.05; FIG. 16
Description: Gba1^D409V/D409V mice were bred and treated according to Example 24. Mice were fed the control diet or the Compound 1 diet as described in Example 24, except that drug administration was initiated when animals were approximately 6 months of age, and continued until euthanasia at 13 months of age.
Hippocampal memory was evaluated with the NOR test according to Example 25, except that the mice were tested at 6 months of age (before treatment) and again 6 months later, at 12 months of age (after treatment).

[4] = Tissue distribution of Compound 1 in brain and liver after oral administration in food; details: Gba1^D409V/D409V mice
Description: Gba1^D409V/D409V mice (harboring a point mutation at residue 409 in the murine Gba1 gene) were bred under a protocol approved by the Institutional Animal Care and Use Committee. Treatments were administered as described and the animals were humanely sacrificed at pre-determined time points or upon reaching a humane endpoint.
A subset of Gba1^D409V/D409V mice received Compound 1 administered in food using a formulation calculated to provide 60 mg/kg/day. Drug administration was initiated when pups were weaned at 4 weeks of age and continued until euthanasia at 4 or 10 months of age. The concentration of Compound 1 in brain and liver tissues was determined by mass spectrometry (see e.g. Ramanathan et al. “The emergence of high-resolution MS as the premier analytical tool in the pharmaceutical bioanalysis arena” Bioanalysis. March 2012; 4(5):467-469).

Gba1^D409V/D409V mice [5] = experiment: Fear conditioning (FC) tests in Gba1^D409V/D409V mice; details: ten month-old mice, 60 mg/kg/day in food
Description: (§1) Gba1^D409V/D409V mice were bred and treated according to Example 24.
(§2) Mice were fed the control diet or the Compound 1 diet as described in Example 24.
Ten month-old wild type (WT) and Gba1^D409V/D409V mice were subjected to FC memory tests. For the FC tests, mice were trained in four of the Med Associates® Near Infrared Fear Conditioning System chambers (St. Albans, Vt.). Mice were placed in the contextual fear chamber in “Context A,” which consists of lighting, a neutral background and a stainless steel grid floor. The mice were trained with a 3-trial delay-cued protocol as defined below. The mice were first given 2 minutes to explore the chamber in Context A before a conditioned stimulus (CS) of a 2000 Hz cue was given. Thirty seconds later a one second unconditioned stimulus (US) of 0.6 mA foot shock was applied. With an inter-trial interval (ITI) of 30 sec, this US-CS response was repeated three times. After a 24 hour retention period, mice were brought back to the testing room and habituated to the room for 1 hour. The mice were again placed in Context A for 5 minutes and freezing to the context was recorded. Freezing (defined as the lack of movement, except for respiration) was recorded using a near-infrared camera system. […] Again, freezing to the novel environment and the cue were assessed with the near infrared camera system. […]

Gba1^D409V/D409V mice [6] = experiment: Novel object recognition (NOR) test in Gba1^D409V/D409V mice; details: 60 mg/kg/day in food from 4 weeks of age, tested at 3 months; FIG. 1
Description: as §1, §2
In the NOR test, […] wild type (WT) and Gba1^D409V/D409V mice were dosed with Compound 1 starting at 4 weeks of age and were subjected to the NOR test at 3 months (2 months post-treatment).
Mice were individually habituated to explore an open-field box for 5 minutes. During the first training session (T1), two identical objects were symmetrically placed into the open field 14 inches from each other. Animals were allowed to explore for 5 minutes. The number of investigations was recorded by a blinded investigator. After a 24 hour retention period, animals were tested (T2) for their recognition of a novel object. Mice were placed back into the open-field box for 5 minutes, and the time spent investigating the familiar and novel objects was recorded.
Statistical analyses were performed by Student's t-test or analysis of variance (ANOVA) followed by Newman-Keuls' post-hoc test. Preference for novelty was defined as investigating the novel object more than 50% of the time by a one-sample t-test. All statistical analyses were performed with GraphPad Prism v4.0 (GraphPad Software, San Diego, Calif.). Values of p<0.05 were considered significant.

[7] = tested on: mice overexpressing A53T α-synuclein; experiment: Fear conditioning (FC) tests in A53T mice; details: eight months of age
[8] = tested on: protein aggregates (ubiquitin, α-synuclein and/or protein tau); experiment: Protein aggregation in brains of Gba1^D409V/D409V mice with Compound 2 (Example 35); details: diet containing Compound 2
Description: Wild-type (WT) and Gba1^D409V/D409V mice are fed the control diet or a diet containing a quinuclidine compound substantially as described in Example 27, except that the compound administered is Compound 2.
The accumulation of proteins (ubiquitin, α-synuclein and protein tau) is determined by hippocampal quantification and protein immuoreactivity as described in Example 27.

Gba1^D409V/D409V mice [9] = experiment: NOR and FC tests in Gba1^D409V/D409V mice with Compound 2 (Example 34); details: diet containing Compound 2
Description: Gba1^D409V/D409V mice are bred and treated substantially as described in Example 24. Mice are fed a control diet or a diet containing a quinuclidine compound substantially as described in Example 25, except that the compound administered is Compound 2.
The NOR test and the FC test are performed substantially as described in Example 25.

[10] = in food, 60 mg/kg/day, mass spectrometry

CC(C)(NC(=O)OC1CN2CCC1CC2)c1cccc(-c2ccc(F)cc2)c1 (stereo not drawn) [Compound 1, 1-azabicyclo[2.2.2]oct-3-yl [2-(4′-fluorobiphenyl-3-yl)propan-2-yl]carbamate]
accumulation of protein aggregates (ubiquitin, α-synuclein and/or protein tau) in the brains [1]: measurable reduction | level of insoluble α-synuclein (human A53T-α-synuclein; SDS-soluble fraction, n=14, P<0.01, FIG. 11C): 81±3 % of the control value | level of cytosolic soluble α-synuclein (human A53T-α-synuclein; Tris-soluble fraction, n=14, P=0.17, FIG. 11A): 114±8 % of the control value | level of membrane-associated α-synuclein (human A53T-α-synuclein; Triton-soluble fraction, n=14, P<0.05, FIG. 11B): 75±8 % of the control value | NOR test, target investigations of novel object during testing (T2) [2]: trend to reversal of their memory deficit | level of protein tau aggregates in hippocampus (protein tau aggregates): significant reduction | NOR test, investigation of novel object during testing trial [3]: recovered the ability to investigate the unfamiliar object | concentration in the brain as percentage of the concentration in the liver ([4]; in food, 60 mg/kg/day): approximately 2% | tissue exposure in the cortex [4, 10]: 217±12 ng/g tissue | tissue exposure in the liver [4, 10]: 10512±603 ng/g tissue | blood-brain barrier penetration ([4]; oral in food): crosses the blood-brain barrier | FC test, contextual memory (freezing responses) (Gba1^D409V/D409V mice [5]; FIG. 2A): improved the freezing responses | FC test, cued memory (Gba1^D409V/D409V mice [5]; FIG. 2B): no effect | NOR test, target investigations of novel object during testing (T2) (Gba1^D409V/D409V mice [6]): trend to reversal of their memory deficit | FC test, contextual memory (freezing responses) ([7]; FIG. 4A): improved the freezing responses | FC test, cued memory ([7]; FIG. 4B): only a marginal effect

CC(C)(NC(=O)O[C@@H]1CN2CCC1CC2)c1csc(-c2ccc(F)cc2)n1 [Compound 2, (S)-quinuclidin-3-yl 2-(2-(4-fluorophenyl)thiazol-4-yl)propan-2-ylcarbamate]
accumulation of protein aggregates (ubiquitin, α-synuclein and/or protein tau) in the brains [8]: measurable reduction | memory deficit (NOR and FC tests) (Gba1^D409V/D409V mice [9]): improve memory deficit
